Results published in US20050267020A1, “Polypeptides derived from inducible hsp70 and pharmaceutical compositions containing the same” (priority 2001, published 2005).

Experiments:
[1] = tested on: COS cells transfected with both Hsp70 and HHD expression vectors; assay: Peptide processing assay on COS-transfected cells, TNF-α secretion by murine CTL; type: cell-based, simian
Description: After contact of murine CTL lines with transfected COS cell, CTL recognition of COS cells is expressed as CTL secretion of TNF-α dosed in supernatant (X Axis, TNF-α ranges from 0 to 500 pg/ml). The graphs represent TNF-α dosage by cytotoxic cell lines, respectively mCTL380, mCTL391 mCTL393 and mCTL134, after contact with COS cells. In each graph, upper to lower bars represent the different cells in contact with CTL, respectively: negative control (no COS cell), COS cells, COS cells transfected with Hsp70 expression plasmid, COS cells transfected with HHD expression plasmid, positive control (COS cells transfected with HHD and pulsed with the respective peptide), COS cells transfected with HHD and with Hsp70 expression plasmids.
Peptide Processing Assay on COS-Transfected Cells. 2.2×10^4 simian COS cells were plated in flat-bottom 96 well plates in DMEM 10% FCS, in quadruplicates for each condition. 18 hours later, the medium is discarded, and 100 ng of each DNA plasmid, encoding for Hsp70 and HLA class I molecules, is put in contact with COS cells in DMEM 10% Nuserum […] Chloroquine 10 mg/mL DEAE Dextran. After 4 hours of incubation at 37° C., transfection medium is discarded, and 50 μL PBS 10% DMSO is added for 2 minutes for integration of plasmids. It is then discarded and transfected COS cells are placed in DMEM 10% FCS for 40 hours. Transfected COS cells are then used with 5×10^4 murine CTL in a TNF-α secretion assay.
TNF-α Secretion Assay. Transfected COS cells on day 4 or 10^5 target tumor cells were plated in 50 μL RPMI 10% FCS and when necessary incubated with 10 μM peptide for 1 hour. In blocking experiments, anti-HLA class I antibody w6/32 or an irrelevant antibody were incubated with target cells for 1 h30. 5×10^4 T cells were then added in 50 μL RPMI 10% FCS and incubated for 6 hours. Each condition was tested in quadruplicates. 50 μL of the supernatant was collected. Standard dilutions were prepared in 50 μL with final doses of TNF-α (kindly provided by I. Apfler, Bender Wien, Austria) ranging from 10^4 to 0.08 pg/mL. On both the supernatants and the standards were added 50 μL of 3×10^4 TNF-α sensitive WEHI-164c13 cells. They were incubated for 16 hours at 37° C. (23). Inhibition of cell proliferation was evaluated by the MTT colorimetric method. Briefly, 50 μL of MTT at 2.5 mg/mL (Sigma-Aldrich) was added and incubated for 4 hours at 37° C. Cells were then lyzed with 100 μL of a pH4.7 33% N,N-dimethyl formamide (Sigma-Aldrich) 20% SDS solution in water. Two hours after cells lysis, OD was measured at 550 nm on a Dynatech MR5000 spectrophotometer. TNF-α quantitation was calculated by linear interpolation with the standard dilutions.

human CD8+ cells = assay: Generation of CTL from human PBMC with peptide- or polyepitope-pulsed dendritic cells, intracellular IFN-γ staining; type: cell-based; conditions: CD8+ cells stimulated with peptide-loaded dendritic cells
Protocol: The three graphs entitled hCTL380, hCTL391 and hCTL393 represent respectively the testing of p380, p391 and p393-specific human CTLs. P391 and p393 specific CTLs were tested towards EBV-B cells, whereas p380 specific CTLs were tested towards T2 cells. The number of IFN-γ producing CD8+ cells for 10^5 CD8+ cells upon activation, indicated on the X-axis, was measured, as assessed by staining cells for CD8 and intracellular IFN-γ.
Polyepitope induced human CTL were tested for their capacity to respond to T2 cells loaded with p380, p391 or p393 or the irrelevant HIVpol589 peptides in intracellular IFN-γ staining. The X axis represents the number of IFNγ-producing CTL/10^5 CD8+ cells. On the Y axis, upper to lower bars represent the results obtained when cells were loaded respectively with irrelevant HIV pol589 peptides, or with p380, p391 or p393 peptides.
Generation of CTL from Human Peripheral Blood Mononuclear Cells (PBMC). Fresh PBMC collected from healthy donnors under informed consent were serologically typed for the studied HLA-class I molecule, and purified using standard Ficoll-Paque (Amersham Pharmacia Biotech AB). Dendritic cells (DC) were prepared by cultivating plastic adherent PBMC in the presence of 500 U/mL GM-CSF (R&D Systems Inc. MN) and 500 U/mL IL-4 (R&D Systems Inc. MN) for 7 days such as described in Keogh et al. (30).
DC were then maturated for 2 days with 2 μg/mL anti-CD40 antibody and 100 ng/mL Poly I:C (Sigma-Aldrich). […] Autologous CD8+ purified T-cells (CD8 MicroBeads, Miltneyi Biotec Inc. CA) were stimulated weekly with DC pulsed for two hours with peptide (10 μM) and irradiated at 35Gy at a T:DC ratio of 10:1 in culture medium (CM; RPMI 1640 supplemented with 10% human AB serum, […] L-glutamine and gentamycin). 1×10^3 U/mL IL-6 and SU/mL IL-12 (R&D Systems Inc. MN) were added during the first week of culture. 20 U/mL clinical grade IL-2 (Proleukin, Chiron Corp.) and 10 ng/mL IL-7 (R&D Systems Inc. MN) were added during the next two weeks of culture. 7 days after the last stimulation with DC, peptide specific IFN-γ secreting CD8+ T cells were magnetically sorted following encounter of the peptide presented by HLA-A*0201+ B-EBV cells (IFN-γ Secretion Assay, Miltenyi Biotec Inc. CA). The characterization of peptide-specific T cells was tested 7 days after the purification step.
Intracellular IFN-g Staining. 5×10^4 T cells were incubated with 10^5 stimulating peptide loaded EBV-B cells or with 10^5 tumor cells in the presence of 20 μg/ml brefeldin-A (Sigma, Oakville, Canada). Six hours later, they were washed, stained with r-phycoerythrin-conjugated anti-CD8 antibody (Caltag Laboratories, Burlingame, Calif.) in PBS for 25 min at 4° C., washed and fixed with 4% PFA. Then, cells were permeabilized with PBS 0.5% BSA 0.2% saponin (Sigma, Oakville, Canada), and stained with allophycocyanin-conjugated anti-IFNg mAb (PharMingen, Mississauga, Canada) for 25 min at 4° C. Cells were analyzed on FACSCalibur (Becton Dickinson, Mountain View, Calif.).

Sequence: YLGYPVTNAV [HSP 134(10)]
- processing of the peptide: recognition of Hsp70 + HHD transfected COS cells by the specific murine CTL line [1]: are epitopes
- induction of specific human CTL (human CD8+ cells): capable of stimulating specific human CTL

Sequence: LLLLDVAPL [HSP 391]
- processing of the peptide: recognition of Hsp70 + HHD transfected COS cells by the specific murine CTL line [1]: are epitopes
- induction of specific human CTL (human CD8+ cells): capable of stimulating specific human CTL

Sequence: LMGDKSENV [HSP 380]
- processing of the peptide: recognition of Hsp70 + HHD transfected COS cells by the specific murine CTL line [1]: are epitopes
- induction of specific human CTL (human CD8+ cells): capable of stimulating specific human CTL
